Laboratory results taken from US10757937B2, “Sulfonamides that activate ABA receptors” (The Regents of the University of California, priority 2014, dated 2020).

What was measured:
Test in all cases: receptor-mediated PP2C (HAB1) inhibition in vitro assay
Format in all cases: biochemical
PYL2 = molecular target: T1, PYL2 (Arabidopsis thaliana, UniProt O80992); conditions: for IC50: Table VII, read-out: PP2C Dose Curves PYL2 (IC50)
T1 construct: 6X-His; made in house; host or cells: E. coli BL21[DE3]pLysS
T1 sequence (O80992 1-190): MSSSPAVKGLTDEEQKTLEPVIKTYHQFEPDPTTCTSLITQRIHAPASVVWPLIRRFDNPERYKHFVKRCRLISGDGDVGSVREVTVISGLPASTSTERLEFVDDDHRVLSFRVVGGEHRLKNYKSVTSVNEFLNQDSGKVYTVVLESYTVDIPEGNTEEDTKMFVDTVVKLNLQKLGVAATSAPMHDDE
T1 sequence (Q9CAJ0 23-511 partner): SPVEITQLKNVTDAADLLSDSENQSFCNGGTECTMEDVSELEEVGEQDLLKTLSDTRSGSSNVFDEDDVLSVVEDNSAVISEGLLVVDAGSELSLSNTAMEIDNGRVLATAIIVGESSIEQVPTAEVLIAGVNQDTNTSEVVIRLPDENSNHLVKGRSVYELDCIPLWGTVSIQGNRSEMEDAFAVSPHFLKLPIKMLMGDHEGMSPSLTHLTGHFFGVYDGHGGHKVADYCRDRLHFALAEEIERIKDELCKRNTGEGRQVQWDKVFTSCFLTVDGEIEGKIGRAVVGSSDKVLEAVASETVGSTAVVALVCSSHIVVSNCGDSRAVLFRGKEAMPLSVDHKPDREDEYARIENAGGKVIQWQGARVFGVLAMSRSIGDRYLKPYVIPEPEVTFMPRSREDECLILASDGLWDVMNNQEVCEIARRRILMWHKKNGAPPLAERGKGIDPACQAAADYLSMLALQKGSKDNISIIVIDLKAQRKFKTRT
How it was run: (§1)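 Compounds, tested at 25 μM or 50 uM with ABA at 10 uM, were incubated with recombinant receptor and 50 nM GST-HAB1 (2:1 ratio) in MnCl2-containing Tris-OAc buffer, pH 7.9. Phosphatase activity was followed by 4-methylumbelliferyl-phosphate fluorescence.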

PYL9 = molecular target: T2, PYL9 (Arabidopsis thaliana, UniProt Q84MC7); conditions: for IC50: Table VII, read-out: PP2C Dose Curves PYL9 (IC50); for remaining activity at 25 µM: compound at 25 μM, control without agonist = 100%; for PYL9 agonist potency and selectivity: five- and six-membered rings at alpha carbon
T2 construct: 6X-His; made in house; host or cells: E. coli BL21[DE3]pLysS
T2 sequence (Q84MC7 1-187): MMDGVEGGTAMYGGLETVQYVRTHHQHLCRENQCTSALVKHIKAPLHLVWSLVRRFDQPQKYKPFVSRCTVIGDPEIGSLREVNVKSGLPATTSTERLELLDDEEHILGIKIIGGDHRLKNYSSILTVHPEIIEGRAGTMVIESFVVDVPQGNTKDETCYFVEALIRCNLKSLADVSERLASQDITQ
T2 sequence (Q9CAJ0 23-511 partner): T1 sequence (Q9CAJ0 23-511 partner)
How it was run: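 Fluorogenic readout: 4-methylumbelliferyl-phosphate hydrolysis by 50 nM GST-HAB1 plus 2:1 His-receptor; Tris-OAc pH 7.9, NaCl, 1 mM MnCl2, β-ME. Compounds at 25 μM or 50 uM single dose; IC50 from dose curves for selected compounds.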

PYL6 = molecular target: T3, PYL6 (Arabidopsis thaliana, UniProt Q8S8E3); conditions: for IC50: Table VII, read-out: PP2C Dose Curves PYL6 (IC50)
T3 construct: 6X-His; made in house; host or cells: E. coli BL21[DE3]pLysS
T3 sequence (Q8S8E3 1-215): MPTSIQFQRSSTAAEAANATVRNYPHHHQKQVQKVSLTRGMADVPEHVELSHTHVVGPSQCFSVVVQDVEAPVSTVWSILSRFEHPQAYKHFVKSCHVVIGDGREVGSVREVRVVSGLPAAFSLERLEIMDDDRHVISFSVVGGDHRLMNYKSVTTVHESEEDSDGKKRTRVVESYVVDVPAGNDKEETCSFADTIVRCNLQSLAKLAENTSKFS
T3 sequence (Q9CAJ0 23-511 partner): T1 sequence (Q9CAJ0 23-511 partner)
How it was run: as §1

PYL10 = molecular target: T4, PYL10 (Arabidopsis thaliana, UniProt Q8H1R0); conditions: for IC50: Table VII, read-out: PP2C Dose Curves PYL10 (IC50)
T4 construct: 6X-His; made in house; host or cells: E. coli BL21[DE3]pLysS
T4 sequence (Q8H1R0 1-183): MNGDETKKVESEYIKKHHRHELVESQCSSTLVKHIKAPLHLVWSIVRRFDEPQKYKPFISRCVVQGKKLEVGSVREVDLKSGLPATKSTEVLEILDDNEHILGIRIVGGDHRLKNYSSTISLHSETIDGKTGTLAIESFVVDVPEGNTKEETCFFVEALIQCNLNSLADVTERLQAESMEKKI
T4 sequence (Q9CAJ0 23-511 partner): T1 sequence (Q9CAJ0 23-511 partner)
How it was run: as §1

PYL1 = molecular target: T5, PYL1 (Arabidopsis thaliana, UniProt Q8VZS8); conditions: for IC50: Table VII, read-out: PP2C Dose Curves PYL1 (IC50)
T5 construct: 6X-His; made in house; host or cells: E. coli BL21[DE3]pLysS
T5 sequence (Q8VZS8 1-221): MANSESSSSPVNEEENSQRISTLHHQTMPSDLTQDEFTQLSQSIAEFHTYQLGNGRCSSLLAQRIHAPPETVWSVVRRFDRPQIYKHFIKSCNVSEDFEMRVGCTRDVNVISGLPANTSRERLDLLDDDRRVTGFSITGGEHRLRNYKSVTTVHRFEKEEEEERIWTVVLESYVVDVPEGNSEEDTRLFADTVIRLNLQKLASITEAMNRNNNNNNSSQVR
T5 sequence (Q9CAJ0 23-511 partner): T1 sequence (Q9CAJ0 23-511 partner)
How it was run: as §1

PYL11 = molecular target: T6, PYL11 (Arabidopsis thaliana, UniProt Q9FJ50); conditions: for IC50: Table VII, read-out: PP2C Dose Curves PYL11 (IC50)
T6 construct: made in house; host or cells: E. coli BL21[DE3]pLysS
T6 sequence (Q9FJ50 1-161): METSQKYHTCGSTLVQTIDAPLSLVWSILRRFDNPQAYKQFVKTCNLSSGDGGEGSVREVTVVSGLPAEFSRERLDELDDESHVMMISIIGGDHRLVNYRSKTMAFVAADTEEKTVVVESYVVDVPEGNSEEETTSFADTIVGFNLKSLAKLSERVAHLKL
T6 sequence (Q9CAJ0 23-511 partner): T1 sequence (Q9CAJ0 23-511 partner)
How it was run: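 His-tagged receptors (MBP fusion for PYL11) at 2:1 ratio to 50 nM GST-HAB1 in 100 mM Tris-OAc pH 7.9, 100 mM NaCl, 1 mM MnCl2; 4-methylumbelliferyl-phosphate fluorogenic substrate. Compounds at 50 uM (ABA 10 uM); IC50 from dose curves for selected compounds.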

SMILES	PP2C Activity PYL2 (PYL2; ABA (10 μM))	PP2C Activity PYL9 (PYL9; ABA (10 μM))	PP2C Activity PYL6 (PYL6; ABA (10 μM))	PP2C Activity PYL10 (PYL10; ABA (10 μM))	PP2C Activity PYL1 (PYL1; ABA (10 μM))	PP2C Activity PYL11 (PYL11; ABA (10 μM))	IC50 (PYL9) [µM]	remaining activity at 25 µM (PYL9) [%]	IC50 (PYL6) [µM]	IC50 (PYL11) [µM]	IC50 (PYL2) [µM]	IC50 (PYL10) [µM]	IC50 (PYL1) [µM]	PYL9 agonist potency and selectivity (PYL9)
CC1=CC(=O)CC(C)(C)[C@@]1(O)/C=C/C(C)=C\C(=O)O [ABA, Abscisic acid, reference compound]	6.1	6.3	10.9	13.8	5.9	5.7	–	–	–	–	–	–	–	–
CC(C)(C(=O)NS(=O)(=O)Cc1ccc([N+](=O)[O-])cc1)c1ccccc1 [Compound 3]	–	–	–	–	–	–	3	18	45.5	1.94	–	–	–	–
CC(C)(C(=O)NS(=O)(=O)Cc1ccc(C#N)cc1)c1ccc(Cl)cc1 [Compound 6]	–	–	–	–	–	–	8.96	32	> 50	4.16	> 50	> 50	–	–
CC(C)(C(=O)NS(=O)(=O)Cc1ccc(C#N)cc1)c1ccc(Cl)c(Cl)c1 [Compound 7]	–	–	–	–	–	–	18.5	38	> 50	13.9	> 50	–	–	–
CC(C)(C(=O)NS(=O)(=O)Cc1ccc(C#N)cc1)c1ccc(F)cc1 [Compound 13]	–	–	–	–	–	–	1.62	17	18.9	2.48	> 50	> 50	–	–
CC(C)(C(=O)NS(=O)(=O)Cc1ccc(C#N)cc1)c1cccc(C#N)c1 [Compound 18]	–	–	–	–	–	–	8.29	34	12.6	14.9	> 50	31.5	–	–
CCC(CC)(C(=O)NS(=O)(=O)Cc1ccc([N+](=O)[O-])cc1)c1ccccc1 [Compound 19]	–	–	–	–	–	–	3.9	15	57.1	2.44	> 50	50.8	> 50	–
CC(C)(C(=O)NS(=O)(=O)Cc1ccc(C#N)cc1)c1ccccc1 [Compound 23]	–	–	–	–	–	–	1.88	–	> 50	7.84	–	> 50	–	–
N#Cc1ccc(CS(=O)(=O)NC(=O)C2(c3ccc(F)cc3)CCCC2)cc1 [Compound 24]	–	–	–	–	–	–	0.6	10	> 50	4.09	–	14.8	> 50	potent and relatively selective PYL9 agonists
N#Cc1ccc(CS(=O)(=O)NC(=O)C2(c3ccccc3F)CCCC2)cc1 [Compound 25]	–	–	–	–	–	–	6.69	21	–	12.7	–	> 50	–	–
N#Cc1ccc(CS(=O)(=O)NC(=O)C2(c3cccc(F)c3)CCCC2)cc1 [Compound 26]	–	–	–	–	–	–	7.11	18	–	7.52	–	41.6	–	–
N#Cc1ccc(CS(=O)(=O)NC(=O)C2(c3ccccc3)CCC2)cc1 [Compound 29]	–	–	–	–	–	–	1.27	14	> 50	1.77	–	> 50	–	–
N#Cc1ccc(CS(=O)(=O)NC(=O)C2(c3ccc(Br)cc3)CC2)cc1 [Compound 30]	–	–	–	–	–	–	> 50	69	> 50	4.63	> 50	–	–	–
N#Cc1ccc(CS(=O)(=O)NC(=O)C2(c3ccc(F)cc3)CCC2)cc1 [Compound 32]	–	–	–	–	–	–	1.4	12	> 50	2.25	–	> 50	–	–
N#Cc1ccc(CS(=O)(=O)NC(=O)C2(c3ccc(F)cc3)CC2)cc1 [Compound 35]	–	–	–	–	–	–	27.2	49	34.7	3.29	–	> 50	–	–
COc1ccccc1C1(C(=O)NS(=O)(=O)Cc2ccc(C#N)cc2)CCC1 [Compound 42]	–	–	–	–	–	–	17.4	42	> 50	14.7	–	17.9	–	–
Cc1cccc(C2(C(=O)NS(=O)(=O)Cc3ccc(C#N)cc3)CCCC2)c1 [Compound 43]	–	–	–	–	–	–	28.2	46	–	> 50	–	> 50	–	–
Cc1ccccc1C1(C(=O)NS(=O)(=O)Cc2ccc(C#N)cc2)CC1 [Compound 44]	–	–	–	–	–	–	21.1	50	12.2	13.3	> 50	79.1	–	–
N#Cc1ccc(CS(=O)(=O)NC(=O)C2(c3cccc(C#N)c3)CC2)cc1 [Compound 50]	–	–	–	–	–	–	5.76	18	2.43	2.52	54.7	> 50	–	–
N#Cc1ccc(CS(=O)(=O)NC(=O)C2(c3ccc(F)cc3)CCCCC2)cc1 [Compound 51]	–	–	–	–	–	–	0.04	8	> 50	5.33	–	4.46	–	potent and relatively selective PYL9 agonists
